According to the supplement of paper PMC10307832:

Columns and labels:
Experiment in all cases: relative viability (nuclei count vs DMSO), 5 days (fraction); higher = more cells survive
A-427 = system: A-427
Outline: (§1)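 A single step with final 0.05% Triton X-100, 1% formaldehyde and 1 ug/ml Hoechst fixed the cells and stained nuclei 5 days after treatment. Lung cancer cell lines in 1536-well plates had been treated by pin tool the day after seeding with one drug alone or a fixed anchor-drug dose plus five library-drug doses (not always all listed) in √10 steps, and nuclei were counted on 4× images. Relative viability is the ratio of nuclei in treated wells to nuclei in vehicle wells, taken as the median of duplicate plates.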

CAL-12T = system: CAL-12T
Outline: as §1

COR-L 105 = system: COR-L 105
Outline: as §1

EMC-BAC-2 = system: EMC-BAC-2
Outline: as §1

HARA = system: HARA
Outline: as §1

HCC-366 = system: HCC-366
Outline: as §1

HCC-827 = system: HCC-827
Outline: as §1

HOP-62 = system: HOP-62
Outline: as §1

LCLC-103H = system: LCLC-103H
Outline: as §1

NCI-H1355 = system: NCI-H1355
Outline: as §1

NCI-H1395 = system: NCI-H1395
Outline: as §1

Compound: NC(=O)Nc1cc(-c2cccc(F)c2)sc1C(=O)N[C@H]1CCCNC1 [AZD7762] + Nc1nc2[nH]cc(CCc3ccc(C(=O)N[C@@H](CCC(=O)O)C(=O)O)cc3)c2c(=O)[nH]1 [Pemetrexed] (partner 0.2 µM)
- relative viability (A-427; first compound 0.01 µM): 0.949
- relative viability (A-427; first compound 0.03162 µM): 0.94
- relative viability (A-427; first compound 0.1 µM): 1.11
- relative viability (A-427; first compound 0.3162 µM): 0.916
- relative viability (A-427; first compound 1 µM): 0.374
- relative viability (CAL-12T; first compound 0.01 µM): 1.16
- relative viability (CAL-12T; first compound 0.03162 µM): 0.981
- relative viability (CAL-12T; first compound 0.1 µM): 1.09
- relative viability (CAL-12T; first compound 0.3162 µM): 0.612
- relative viability (CAL-12T; first compound 1 µM): 0.226
- relative viability (COR-L 105; first compound 0.01 µM): 0.961
- relative viability (COR-L 105; first compound 0.03162 µM): 1.11
- relative viability (COR-L 105; first compound 0.1 µM): 0.913
- relative viability (COR-L 105; first compound 0.3162 µM): 0.87
- relative viability (COR-L 105; first compound 1 µM): 0.579
- relative viability (EMC-BAC-2; first compound 0.01 µM): 0.457
- relative viability (EMC-BAC-2; first compound 0.03162 µM): 0.397
- relative viability (EMC-BAC-2; first compound 0.1 µM): 0.405
- relative viability (EMC-BAC-2; first compound 0.3162 µM): 0.35
- relative viability (EMC-BAC-2; first compound 1 µM): 0.387
- relative viability (HARA; first compound 0.01 µM): 0.23
- relative viability (HARA; first compound 0.03162 µM): 0.25
- relative viability (HARA; first compound 0.1 µM): 0.198
- relative viability (HARA; first compound 0.3162 µM): 0.16
- relative viability (HARA; first compound 1 µM): 0.164
- relative viability (HCC-366; first compound 0.01 µM): 0.195
- relative viability (HCC-366; first compound 0.03162 µM): 0.11
- relative viability (HCC-366; first compound 0.1 µM): 0.0981
- relative viability (HCC-366; first compound 0.3162 µM): 0.0668
- relative viability (HCC-366; first compound 1 µM): 0.0716
- relative viability (HCC-827; first compound 0.01 µM): 0.301
- relative viability (HCC-827; first compound 0.03162 µM): 0.257
- relative viability (HCC-827; first compound 0.1 µM): 0.211
- relative viability (HCC-827; first compound 0.3162 µM): 0.192
- relative viability (HCC-827; first compound 1 µM): 0.148
- relative viability (HOP-62; first compound 0.01 µM): 0.359
- relative viability (HOP-62; first compound 0.03162 µM): 0.318
- relative viability (HOP-62; first compound 0.1 µM): 0.264
- relative viability (HOP-62; first compound 0.3162 µM): 0.248
- relative viability (HOP-62; first compound 1 µM): 0.208
- relative viability (LCLC-103H; first compound 0.01 µM): 0.464
- relative viability (LCLC-103H; first compound 0.03162 µM): 0.498
- relative viability (LCLC-103H; first compound 0.1 µM): 0.45
- relative viability (LCLC-103H; first compound 0.3162 µM): 0.452
- relative viability (LCLC-103H; first compound 1 µM): 0.394
- relative viability (NCI-H1355; first compound 0.01 µM): 1.07
- relative viability (NCI-H1355; first compound 0.03162 µM): 1.03
- relative viability (NCI-H1355; first compound 0.1 µM): 1.08
- relative viability (NCI-H1355; first compound 0.3162 µM): 0.708
- relative viability (NCI-H1355; first compound 1 µM): 0.709
- relative viability (NCI-H1395; first compound 0.01 µM): 0.847
- relative viability (NCI-H1395; first compound 0.03162 µM): 0.768
- relative viability (NCI-H1395; first compound 0.1 µM): 0.641
- relative viability (NCI-H1395; first compound 0.3162 µM): 0.401
- relative viability (NCI-H1395; first compound 1 µM): 0.306
